# Laboratory results: patent US20210198277A1, “AMINE-SUBSTITUTED ARYL OR HETEROARYL COMPOUNDS” (Epizyme, Inc., priority 2016, published 2021)
# Target: T1, human EHMT2 913-1193 (Homo sapiens, UniProt Q96KQ7)
# T1 construct: recombinant purified human EHMT2 913-1193, Viva; purchased Viva
# T1 sequence (Q96KQ7 913-1193): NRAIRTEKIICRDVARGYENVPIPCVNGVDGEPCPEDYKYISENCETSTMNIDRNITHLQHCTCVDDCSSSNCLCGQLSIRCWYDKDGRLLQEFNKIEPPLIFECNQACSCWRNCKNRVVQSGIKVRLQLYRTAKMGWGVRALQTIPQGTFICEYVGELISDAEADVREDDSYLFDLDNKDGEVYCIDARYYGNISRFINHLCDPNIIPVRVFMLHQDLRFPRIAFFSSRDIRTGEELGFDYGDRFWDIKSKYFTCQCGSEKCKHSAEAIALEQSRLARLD
# Test: EHMT2 enzyme assay on histone peptide substrate (EHMT2 PEP)
# Type: biochemical
# Conditions: Table III; read-out: EHMT2 PEP (IC50 μM)
# In short: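 Inhibition is measured as reduced tritium incorporation into a biotinylated histone peptide from ^3H-SAM. The enzyme (0.031 nM) sees compound for 30 minutes before a 60-minute room-temperature reaction, which unlabeled SAM quenches prior to streptavidin Flashplate capture.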
row,SMILES,IC50 [µM]
1,"CNc1cc(C)nc(Nc2ccc(OC)c(OCC3CCN(C)CC3)c2)n1 [Compound 435, N^2-(4-methoxy-3-((1-methylpiperidin-4-yl)methoxy)phenyl)-N^4,6-dimethylpyrimidine-2,4-diamine]",1 to 10
2,"CNc1cc(Nc2cccc(COCCN3CCCC3)n2)ccn1 [Compound 268, N^2-methyl-N^4-(6-((2-(pyrrolidin-1-yl)ethoxy)methyl)pyridin-2-yl)pyridine-2,4-diamine]",> 10
3,COc1cnc(Nc2nc(C)cc3[nH]ccc23)cc1OCCCN1CCCC1 [Compound 310],0.1 to 1
4,"CNc1ccnc(Nc2cccc(COCCN3CCCC3)n2)c1 [Compound 267, N^4-methyl-N^2-(6-((2-(pyrrolidin-1-yl)ethoxy)methyl)pyridin-2-yl)pyridine-2,4-diamine]",> 10
5,"CNc1cc(C)nc(Nc2ccc(OC)c(O[C@H]3C[C@@H](N(C)C)C3)c2)n1 (single isomer, unassigned) [Compound 317, N^2-(3-((1s,3s)-3-(dimethylamino)cyclobutoxy)-4-methoxyphenyl)-N^4,6-dimethylpyrimidine-2,4-diamine]",1 to 10
6,"CNc1cc(C)nc(Nc2ccc(OC)c(OCC3CCN(C4CCC4)C3)c2)n1 (stereo not drawn) [Compound 446, N^2-(3-((1-cyclobutylpyrrolidin-3-yl)methoxy)-4-methoxyphenyl)-N^4,6-dimethylpyrimidine-2,4-diamine]",< 0.1
7,"CNc1ccnc(Nc2cccc(OCC(F)(F)CN3CCCC3)c2)n1 [Compound 277, N^2-(3-(2,2-difluoro-3-(pyrrolidin-1-yl)propoxy)phenyl)-N^4-methylpyrimidine-2,4-diamine]",> 10
8,CNc1cc(Nc2ccc(OC)c(OCCCN3CCCC3)c2)cc(C(F)(F)F)n1 [Compound 273],> 10
9,"CNc1cc(C)nc(Nc2ccc(OC)c(O[C@H]3C[C@@H](CN(C)C)C3)c2)n1 [Compound 318, N^2-(3-((1s,3s)-3-((dimethylamino)methyl)cyclobutoxy)-4-methoxyphenyl)-N^4,6-dimethylpyrimidine-2,4-diamine]",> 10
10,"CCc1nc(Nc2ccc(OC)c(OCCCN3CCCC3)c2)nc(NC)c1F [Compound 319, 6-ethyl-5-fluoro-N^2-(4-methoxy-3-(3-(pyrrolidin-1-yl)propoxy)phenyl)-N^4-methylpyrimidine-2,4-diamine]",0.1 to 1
11,"CNc1ccnc(Nc2cccc(C(C)OCCN3CCCC3)c2)n1 (stereo not drawn) [Compound 279, N^4-methyl-N^2-(3-(1-(2-(pyrrolidin-1-yl)ethoxy)ethyl)phenyl) pyrimidine-2,4-diamine]",> 10
12,"CCNC(=O)c1cc(Nc2nccc(NC)n2)ccn1 [Compound 291, N-ethyl-4-((4-(methylamino)pyrimidin-2-yl)amino)picolinamide]",> 10
13,"CNc1cc(C)nc(Nc2ccc(OC)c(OCC3CNC3)c2)n1 [Compound 437, N^2-(3-(azetidin-3-ylmethoxy)-4-methoxyphenyl)-N^4,6-dimethylpyrimidine-2,4-diamine]",0.1 to 1
14,"CNc1cc(C)nc(Nc2ccc(OC)c(OCCOC)c2)n1 [Compound 311, N^2-(4-methoxy-3-(2-methoxyethoxy)phenyl)-N^4,6-dimethylpyrimidine-2,4-diamine]",> 10
15,CNc1cc(C)nc(Nc2ccc(OC)c(OC3CCN(CC4CC4)CC3)c2)n1 [Compound 443],> 10
16,CNc1cc(C)nc(Nc2ccc(OC)c(OC[C@H]3C[C@@H](N(C)C)C3)c2)n1 [Compound 316],1 to 10
17,"COc1cnc(Nc2cnc3ccccn23)cc1OCCCN1CCCC1 [Compound 321, N-(5-methoxy-4-(3-(pyrrolidin-1-yl)propoxy)pyridin-2-yl)imidazo[1,2-a]pyridin-3-amine]",1 to 10
18,"COc1ccc(Nc2nc(C)cc(NCC3CCOCC3)n2)cc1OCC1CCN(C)C1 (stereo not drawn) [Compound 451, N^2-(4-methoxy-3-((1-methylpyrrolidin-3-yl)methoxy)phenyl)-6-methyl-N^4-((tetrahydro-2H-pyran-4-yl)methyl)pyrimidine-2,4-diamine]",0.1 to 1
19,COc1cnc(Nc2nccc3[nH]ccc23)cc1OCCCN1CCCC1 [Compound 304],< 0.1
20,"CNc1cc(C)nc(Nc2cc(OCCCN3CCCC3)c(OC)cc2F)n1 [Compound 302, N^2-(2-fluoro-4-methoxy-5-(3-(pyrrolidin-1-yl)propoxy)phenyl)-N^4,6-dimethylpyrimidine-2,4-diamine]",1 to 10
21,"CNc1cc(C)nc(Nc2ccc(C3CC3)c(OCCCN3CCCC3)c2)n1 [Compound 313, N^2-(4-cyclopropyl-3-(3-(pyrrolidin-1-yl)propoxy)phenyl)-N^4,6-dimethylpyrimidine-2,4-diamine]",0.1 to 1
22,"CNc1cc(C)nc(Nc2ccc(OC)c(OCCCOC)c2)n1 [Compound 312, N^2-(4-methoxy-3-(3-methoxypropoxy)phenyl)-N^4,6-dimethylpyrimidine-2,4-diamine]",> 10
23,CNc1nc(C2CCN(C)CC2)c2cc(OC)c(OCCCN3CCCC3)cc2n1 [Compound 270],< 0.1
24,"CNc1cc(C)nc(Nc2cc(OCCCN3CCCC3)c(OC)cn2)n1 [Compound 303, N^2-(5-methoxy-4-(3-(pyrrolidin-1-yl)propoxy)pyridin-2-yl)-N^4,6-dimethylpyrimidine-2,4-diamine]",< 0.1
25,"CNc1cc(C)nc(Nc2ccc(OC)c(OCC3CCN(C4COC4)C3)c2)n1 (stereo not drawn) [Compound 449, N^2-(4-methoxy-3-((1-(oxetan-3-yl)pyrrolidin-3-yl)methoxy)phenyl)-N^4,6-dimethylpyrimidine-2,4-diamine]",0.1 to 1
26,"CNc1cc(N2CCCC2)nc(Nc2ccc(OC)c(OCCCN3CCCC3)c2)n1 [Compound 450, N^2-(4-methoxy-3-(3-(pyrrolidin-1-yl)propoxy)phenyl)-N^4-methyl-6-(pyrrolidin-1-yl)pyrimidine-2,4-diamine]",1 to 10
27,"CNc1cc(C)nc(Nc2ccc(OC)c(OCC3CCCO3)c2)n1 (stereo not drawn) [Compound 452, N^2-(4-methoxy-3-((tetrahydrofuran-2-yl)methoxy)phenyl)-N^4,6-dimethylpyrimidine-2,4-diamine]",> 10

# Now from value to compound:
row,IC50 [µM],SMILES
1,> 10,"CNc1ccnc(Nc2ccc(OC)c(OCCCN3CCC(C(F)(F)F)C3)c2)n1 (stereo not drawn) [Compound 285, N^2-(4-methoxy-3-(3-(3-(trifluoromethyl)pyrrolidin-1-yl)propoxy)phenyl)-N^4-methylpyrimidine-2,4-diamine]"
2,0.1 to 1,"CNc1ccnc(Nc2ccc(OC)c(OCCC3CCCN3C)c2)n1 (stereo not drawn) [Compound 288, N^2-(4-methoxy-3-(2-(1-methylpyrrolidin-2-yl)ethoxy)phenyl)-N^4-methylpyrimidine-2,4-diamine]"
3,> 10,"CNc1ccnc(Nc2ccc(OC)c(OCc3noc(C4CC4)n3)c2)n1 [Compound 433, N^2-(3-((5-cyclopropyl-1,2,4-oxadiazol-3-yl)methoxy)-4-methoxyphenyl)-N^4-methylpyrimidine-2,4-diamine]"
4,< 0.1,"CNc1ccnc(Nc2ccc(OC)c(OCCCN3CC4CC4C3)c2)n1 (stereo not drawn) [Compound 298, N^2-(3-(3-(3-azabicyclo[3.1.0]hexan-3-yl)propoxy)-4-methoxyphenyl)-N^4-methylpyrimidine-2,4-diamine]"
5,> 10,CNc1ccnc(Nc2ccc(OC)c(OCCCN3CCC(S(C)(=O)=O)C3)c2)n1 (stereo not drawn) [Compound 282]
6,> 10,"CNc1ccnc(Nc2ccc(OC)c(OCc3cc(C4CC4)on3)c2)n1 [Compound 426, N^2-(3-((5-cyclopropylisoxazol-3-yl)methoxy)-4-methoxyphenyl)-N^4-methylpyrimidine-2,4-diamine]"
7,1 to 10,"CNc1ccnc(Nc2ccc(OC)c(OCCCN(C)CC3CC3)c2)n1 [Compound 424, N^2-(3-(3-((cyclopropylmethyl)(methyl)amino)propoxy)-4-methoxyphenyl)-N^4-methylpyrimidine-2,4-diamine]"
8,0.1 to 1,"CNc1ccnc(Nc2ccc(OC)c(OCCCN3CCCC3C)c2)n1 (stereo not drawn) [Compound 290, N^2-(4-methoxy-3-(3-(2-methylpyrrolidin-1-yl)propoxy)phenyl)-N^4-methylpyrimidine-2,4-diamine]"
9,0.1 to 1,"CNc1ccnc(Nc2ccc(OC)c(OCC3CCCN3C)c2)n1 (stereo not drawn) [Compound 289, N^2-(4-methoxy-3-((1-methylpyrrolidin-2-yl)methoxy)phenyl)-N^4-methylpyrimidine-2,4-diamine]"
10,0.1 to 1,"CNc1ccnc(Nc2ccc(OC)c(OC[C@@H](O)CN3CCCC3)c2)n1 [Compound 300, (S)-1-(2-methoxy-5-((4-(methylamino)pyrimidin-2-yl)amino)phenoxy)-3-(pyrrolidin-1-yl)propan-2-ol]"
11,> 10,"CNc1ccnc(Nc2ccc(OC)c(OC[C@@H]3CN(C)C[C@H]3C)c2)n1 (single isomer, unassigned) [Compound 438]"
12,0.1 to 1,"CNc1ccnc(Nc2ccc(OC)c(OCCCN3CCC3C)c2)n1 (stereo not drawn) [Compound 429, N^2-(4-methoxy-3-(3-(2-methylazetidin-1-yl)propoxy)phenyl)-N^4-methylpyrimidine-2,4-diamine]"
13,0.1 to 1,"CNc1ccnc(Nc2ccc(OC)c(OC[C@H]3CN(C)C[C@@H]3C)c2)n1 (single isomer, unassigned) [Compound 439]"
14,< 0.1,"CNc1cc(C2CC2)nc(Nc2ccc(OC)c(OCCCN3CCCC3)c2)n1 [Compound 320, 6-cyclopropyl-N^2-(4-methoxy-3-(3-(pyrrolidin-1-yl)propoxy)phenyl)-N^4-methylpyrimidine-2,4-diamine]"
15,< 0.1,COc1ccc(Nc2nccc(NCC3CC(C)(C)NC(C)(C)C3)n2)cc1OCCCN1CCCC1 [Compound 278]
